{
  "source": "patent US10189809B2",
  "about": "“SGC stimulators” (Ironwood Pharmaceuticals, Inc., priority 2010, dated 2019)",
  "key": {"[1]": {"biological_target": "T1, soluble guanylate cyclase (sGC) (Homo sapiens (Human), UniProt Q02108+Q02153)", "T1 sequence (Q02153 whole entry)": "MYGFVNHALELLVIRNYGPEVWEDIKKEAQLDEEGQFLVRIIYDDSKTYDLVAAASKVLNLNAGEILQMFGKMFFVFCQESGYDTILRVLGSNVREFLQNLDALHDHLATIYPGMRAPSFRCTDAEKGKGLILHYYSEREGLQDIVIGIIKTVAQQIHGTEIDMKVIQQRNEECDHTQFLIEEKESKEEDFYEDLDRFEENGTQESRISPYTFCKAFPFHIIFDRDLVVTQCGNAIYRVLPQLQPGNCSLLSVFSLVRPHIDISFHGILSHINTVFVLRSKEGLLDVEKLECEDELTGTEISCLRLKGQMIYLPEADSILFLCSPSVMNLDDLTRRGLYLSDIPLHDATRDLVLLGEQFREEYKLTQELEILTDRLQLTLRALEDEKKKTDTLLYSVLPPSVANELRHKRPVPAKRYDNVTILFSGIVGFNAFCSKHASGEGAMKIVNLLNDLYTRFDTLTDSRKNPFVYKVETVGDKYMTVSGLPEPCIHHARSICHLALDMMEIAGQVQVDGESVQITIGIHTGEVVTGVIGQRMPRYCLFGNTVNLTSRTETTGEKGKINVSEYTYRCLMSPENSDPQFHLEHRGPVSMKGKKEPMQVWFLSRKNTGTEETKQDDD", "T1 sequence (Q02108 whole entry)": "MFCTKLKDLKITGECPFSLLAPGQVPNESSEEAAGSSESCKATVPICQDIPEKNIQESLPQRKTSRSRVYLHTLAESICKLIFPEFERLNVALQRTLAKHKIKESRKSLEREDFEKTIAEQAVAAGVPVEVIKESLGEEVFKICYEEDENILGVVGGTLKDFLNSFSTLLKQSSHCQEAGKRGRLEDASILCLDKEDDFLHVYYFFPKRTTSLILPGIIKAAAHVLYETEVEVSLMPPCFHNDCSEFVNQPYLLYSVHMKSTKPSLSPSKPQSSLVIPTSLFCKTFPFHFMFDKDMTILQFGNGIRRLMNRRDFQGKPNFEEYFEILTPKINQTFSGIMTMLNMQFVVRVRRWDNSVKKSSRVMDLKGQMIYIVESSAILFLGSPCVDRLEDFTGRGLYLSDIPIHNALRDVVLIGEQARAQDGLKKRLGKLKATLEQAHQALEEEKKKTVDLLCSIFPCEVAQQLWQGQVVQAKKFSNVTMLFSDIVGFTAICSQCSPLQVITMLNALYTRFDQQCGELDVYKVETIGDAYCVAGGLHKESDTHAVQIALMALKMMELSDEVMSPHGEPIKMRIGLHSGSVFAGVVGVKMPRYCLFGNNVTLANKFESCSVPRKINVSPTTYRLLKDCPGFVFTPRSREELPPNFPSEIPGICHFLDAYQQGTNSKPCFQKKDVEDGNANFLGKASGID", "test": "sGC-HEK-cGMP assay run in the absence of SNP (HEK WC assay)", "type": "cell-based", "details": "no SNP, increase in the sGC receptor activity; for HEK WC Assay (fold increase at 10 μM): compound at 10 μM; for HEK WC Assay (fold increase at 30 μM): compound at 30 μM", "in_short": "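Intracellular cGMP was measured by LC/MS, using a standard curve, in HEK293 cells treated with compound for 10 min at 37° C after a 15 min 0.5 mM IBMX pretreatment, with no SNP present. Lysis and quench used 0.1 M HCl. EC50 values came from concentration-response fits.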"}, "[2]": {"biological_target": "T1, soluble guanylate cyclase (sGC)", "test": "sGC-HEK-cGMP assay run with SNP incubation (HEK WC assay)", "type": "cell-based", "details": "for Emax at 10 µM: read-out: HEK WC Assay (% Emax at 10 uM/with 10 uM SNP); for Emax at 30 µM: read-out: HEK WC Assay (% Emax at 30 uM/with 10 uM SNP)", "in_short": "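EC50 values derive from concentration-response curves of intracellular cGMP in HEK293 cells, which express sGC endogenously. Compound and sodium nitroprusside were co-incubated 10 min at 37 °C after a 15-min 0.5 mM IBMX step, with 0.1 M HCl lysis and 1% DMSO vehicle.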"}, "[3]": {"biological_target": "T2, Human soluble guanylate cyclase enzyme (hsGC) (Homo sapiens (Human), UniProt Q02108+Q02153)", "T2 sequence (Q02153 whole entry)": "as the sequence (Q02153 whole entry) above", "T2 sequence (Q02108 whole entry)": "as the sequence (Q02108 whole entry) above", "test": "Purified human sGC enzyme activity assay", "type": "biochemical", "details": "for sGC Enzyme (specific activity at 10 μM) / sGC Enzyme (fold increase at 10 μM without SNP): 10 μM compound; for sGC Enzyme (fold increase at 30 μM without SNP) / sGC Enzyme (specific activity at 30 μM): 30 μM compound", "in_short": "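Values are fold-change of sGC specific activity, nmoles cGMP per mg enzyme per min, relative to DMSO controls. Reactions: 5 ng human enzyme, 300 μM GTP, 1 mM IBMX, 2 mM MgCl2/DTT, 0.1 M Tris pH 8.0, compound 10 or 30 μM final, 37° C for 30 minutes, methanol quench. cGMP read against a 0.078-10 μM final standard curve.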"}, "[4]": {"biological_target": "T2, Human soluble guanylate cyclase enzyme (hsGC)", "test": "Purified human sGC enzyme synergy assay in the presence of 1 μM sodium nitroprusside (SNP)", "type": "biochemical", "details": "with 1 μM SNP; for sGC Enzyme (fold increase at 10 μM with SNP): 10 μM compound; for sGC Enzyme (fold increase at 30 μM with SNP): 30 μM compound", "in_short": "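Fold-change in cGMP-forming specific activity (nmol/mg/min) versus DMSO, with 1 μM SNP present throughout. Reactions held 30 min at 37 °C with 10 or 30 μM compound, 5 ng human sGC, 300 μM GTP, 1 mM IBMX and 2 mM MgCl2 at pH 8.0, then stopped with cold methanol.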"}, "Thoracic aortic rings": {"test_system": "Thoracic aortic rings", "test": "Thoracic aortic rings assay (Example 19a; IBMX as 100% inhibition)", "details": "compound at 10 μM; rat thoracic aortic rings contracted with 100 ng/mL phenylephrine; read-out: Percent Relaxation at 10 μM", "description": "Thoracic aortic rings were dissected from anesthetized (isoflurane) male Sprague-Dawley rats weighing 275-299 g. Tissues were immediately transferred to ice-cold Krebs-Henseleit solution, which had been aerated with 95% O2 and 5% CO2 for 30 minutes. Following removal of connective tissue, aortic sections were cut into 4 rings (˜2 mm each) and suspended on 2 L-shaped hooks, with one hook fixed at the bottom of the tissue bath (Schuler Organ Bath, Harvard Apparatus) and the other connected to a force transducer (F30 Force Transducer, Harvard Apparatus). Baths contained Krebs Henseleit solution (10 mL) heated to 37° C. and aerated with 95% O2 and 5% CO2. Rings were brought to an initial tension of 0.3-0.5 g and gradually raised to a resting tension of 1.0 g over 60 minutes. Rings were rinsed with Krebs Henseleit solution (heated to 37° C. and aerated with 95% O2 and 5% CO2) at 15 minute intervals until a stable baseline was obtained. Rings were considered to be stable after a resting tension of 1.0 g was maintained (for approximately 10 minutes) without need for adjustment. Rings were then contracted with 100 ng/mL phenylephrine by adding 100 uL of a 10 μg/mL phenylephrine stock solution. Tissues achieving a stable contraction were then treated in a cumulative, dose dependent manner with test compounds prepared in dimethylsulfoxide (DMSO). In some cases, tissues were rinsed three times over a 5 minute period with Krebs-Heinseleit's solution (heated to 37° C. and aerated with 95% O2 and 5% CO2), allowed to stabilize at baseline, and then used for characterization of other test articles or DMSO effects. All data were collected using the HSE-ACAD software provided by Harvard Apparatus. […] EC50 values were calculated from concentration-response curves generated with GraphPad Prism Software."}},
  "data": [
    {"smiles": "N#Cc1cc(-c2ccccn2)nn1Cc1ccccc1F", "note": "[Compound I-3]", "values": [
      {"measurement": "HEK WC Assay (fold increase at 10 μM)", "setting": "[1]", "result": "A (A = no increase to <1 fold increase)"},
      {"measurement": "HEK WC Assay (fold increase at 30 μM)", "setting": "[1]", "result": "D (D = 5 to <10 fold increase)"},
      {"measurement": "Emax at 10 µM", "setting": "[2]", "result": "20 to 40", "unit": "%"},
      {"measurement": "Emax at 30 µM", "setting": "[2]", "result": "40 to 60", "unit": "%"},
      {"measurement": "sGC Enzyme (specific activity at 10 μM)", "setting": "[3]", "result": "D (D = 200 to <500)"},
      {"measurement": "sGC Enzyme (fold increase at 10 μM without SNP)", "setting": "[3]", "result": "B (B = 2 to <5 fold increase)"},
      {"measurement": "sGC Enzyme (fold increase at 30 μM without SNP)", "setting": "[3]", "result": "C (C = 5 to <10 fold increase)"},
      {"measurement": "sGC Enzyme (fold increase at 10 μM with SNP)", "setting": "[4]", "result": "C (C = 5 to <10 fold increase)"},
      {"measurement": "sGC Enzyme (fold increase at 30 μM with SNP)", "setting": "[4]", "result": "C (C = 5 to <10 fold increase)"},
      {"measurement": "inhibition at 10 µM", "setting": "Thoracic aortic rings", "result": 92, "unit": "%"}
    ]},
    {"smiles": "Fc1ccccc1Cn1nc(-c2ncccn2)cc1-c1ccsc1", "note": "[Compound I-4]", "values": [
      {"measurement": "HEK WC Assay (fold increase at 10 μM)", "setting": "[1]", "result": "A (A = no increase to <1 fold increase)"},
      {"measurement": "HEK WC Assay (fold increase at 30 μM)", "setting": "[1]", "result": "D (D = 5 to <10 fold increase)"},
      {"measurement": "Emax at 10 µM", "setting": "[2]", "result": "10 to 20", "unit": "%"},
      {"measurement": "Emax at 30 µM", "setting": "[2]", "result": "20 to 40", "unit": "%"},
      {"measurement": "sGC Enzyme (specific activity at 10 μM)", "setting": "[3]", "result": "E (E = 500 to <1000)"},
      {"measurement": "sGC Enzyme (fold increase at 10 μM without SNP)", "setting": "[3]", "result": "B (B = 2 to <5 fold increase)"},
      {"measurement": "sGC Enzyme (specific activity at 30 μM)", "setting": "[3]", "result": "E (E = 500 to <1000)"},
      {"measurement": "sGC Enzyme (fold increase at 30 μM without SNP)", "setting": "[3]", "result": "C (C = 5 to <10 fold increase)"},
      {"measurement": "sGC Enzyme (fold increase at 10 μM with SNP)", "setting": "[4]", "result": "B (B = 2 to <5 fold increase)"},
      {"measurement": "sGC Enzyme (fold increase at 30 μM with SNP)", "setting": "[4]", "result": "C (C = 5 to <10 fold increase)"},
      {"measurement": "inhibition at 10 µM", "setting": "Thoracic aortic rings", "result": 102, "unit": "%"}
    ]},
    {"smiles": "Fc1ccccc1Cn1nc(-c2ccccn2)cc1-c1ccccc1", "note": "[Compound I-5]", "values": [
      {"measurement": "HEK WC Assay (fold increase at 10 μM)", "setting": "[1]", "result": "A (A = no increase to <1 fold increase)"},
      {"measurement": "HEK WC Assay (fold increase at 30 μM)", "setting": "[1]", "result": "A (A = no increase to <1 fold increase)"},
      {"measurement": "Emax at 10 µM", "setting": "[2]", "result": "0 to 10", "unit": "%"},
      {"measurement": "Emax at 30 µM", "setting": "[2]", "result": "10 to 20", "unit": "%"},
      {"measurement": "sGC Enzyme (specific activity at 10 μM)", "setting": "[3]", "result": "D (D = 200 to <500)"},
      {"measurement": "sGC Enzyme (fold increase at 10 μM without SNP)", "setting": "[3]", "result": "B (B = 2 to <5 fold increase)"},
      {"measurement": "sGC Enzyme (specific activity at 30 μM)", "setting": "[3]", "result": "D (D = 200 to <500)"},
      {"measurement": "sGC Enzyme (fold increase at 30 μM without SNP)", "setting": "[3]", "result": "B (B = 2 to <5 fold increase)"},
      {"measurement": "sGC Enzyme (fold increase at 10 μM with SNP)", "setting": "[4]", "result": "B (B = 2 to <5 fold increase)"},
      {"measurement": "sGC Enzyme (fold increase at 30 μM with SNP)", "setting": "[4]", "result": "B (B = 2 to <5 fold increase)"},
      {"measurement": "inhibition at 10 µM", "setting": "Thoracic aortic rings", "result": 55.6, "unit": "%"}
    ]},
    {"smiles": "COc1cccc(-c2cc(-c3ncccn3)nn2Cc2ccccc2F)n1", "note": "[Compound I-6]", "values": [
      {"measurement": "HEK WC Assay (fold increase at 10 μM)", "setting": "[1]", "result": "B (B = 1 to <2 fold increase)"},
      {"measurement": "HEK WC Assay (fold increase at 30 μM)", "setting": "[1]", "result": "C (C = 2 to <5 fold increase)"},
      {"measurement": "Emax at 10 µM", "setting": "[2]", "result": "20 to 40", "unit": "%"},
      {"measurement": "Emax at 30 µM", "setting": "[2]", "result": "20 to 40", "unit": "%"},
      {"measurement": "sGC Enzyme (specific activity at 10 μM)", "setting": "[3]", "result": "D (D = 200 to <500)"},
      {"measurement": "sGC Enzyme (fold increase at 10 μM without SNP)", "setting": "[3]", "result": "B (B = 2 to <5 fold increase)"},
      {"measurement": "sGC Enzyme (specific activity at 30 μM)", "setting": "[3]", "result": "D (D = 200 to <500)"},
      {"measurement": "sGC Enzyme (fold increase at 30 μM without SNP)", "setting": "[3]", "result": "B (B = 2 to <5 fold increase)"},
      {"measurement": "sGC Enzyme (fold increase at 10 μM with SNP)", "setting": "[4]", "result": "B (B = 2 to <5 fold increase)"},
      {"measurement": "sGC Enzyme (fold increase at 30 μM with SNP)", "setting": "[4]", "result": "D (D = equal or >10 fold increase)"},
      {"measurement": "inhibition at 10 µM", "setting": "Thoracic aortic rings", "result": 102, "unit": "%"}
    ]},
    {"smiles": "Fc1ccccc1Cn1nc(-c2ncccn2)cc1-c1nccs1", "note": "[Compound I-33]", "values": [
      {"measurement": "HEK WC Assay (fold increase at 10 μM)", "setting": "[1]", "result": "B (B = 1 to <2 fold increase)"},
      {"measurement": "HEK WC Assay (fold increase at 30 μM)", "setting": "[1]", "result": "C (C = 2 to <5 fold increase)"},
      {"measurement": "Emax at 10 µM", "setting": "[2]", "result": "20 to 40", "unit": "%"},
      {"measurement": "Emax at 30 µM", "setting": "[2]", "result": "40 to 60", "unit": "%"},
      {"measurement": "sGC Enzyme (specific activity at 10 μM)", "setting": "[3]", "result": "C (C = 100 to <200)"},
      {"measurement": "sGC Enzyme (fold increase at 10 μM without SNP)", "setting": "[3]", "result": "A (A = no increase to <2 fold increase)"},
      {"measurement": "sGC Enzyme (specific activity at 30 μM)", "setting": "[3]", "result": "D (D = 200 to <500)"},
      {"measurement": "sGC Enzyme (fold increase at 30 μM without SNP)", "setting": "[3]", "result": "C (C = 5 to <10 fold increase)"},
      {"measurement": "sGC Enzyme (fold increase at 30 μM with SNP)", "setting": "[4]", "result": "D (D = equal or >10 fold increase)"},
      {"measurement": "inhibition at 10 µM", "setting": "Thoracic aortic rings", "result": 110, "unit": "%"}
    ]}
  ]
}
